# Experimental data taken from US12528790B2, “Amide derivative having antiviral activity” (Shionogi & Co., Ltd., priority 2020, dated 2026).
# Test system: RSV A2 strain
# Experiment: In vitro CPE (CytoPathic Effect) inhibition effect evaluation test, RSV type A
# Format: cell-based
# Details: human respiratory syncytial virus, HEp-2
# Description: The test sample is diluted in advance to an appropriate concentration with DMSO, and 3-fold series of serial dilutions were prepared on a 384-well plate (0.32 μL/well). HEp-2 cells (CCL-23; ATCC) adjusted at appropriate number (2.4×10^5 cells/mL) in 2% FBS E-MEM (prepared by adding kanamycin and FBS to Eagle's Minimum Essential Medium; Invitrogen) were added at 12.5 μL/well to the 384-well plate previously aliquoted with the test samples. The RSV A2 strain was diluted to an appropriate concentration in a culture medium and added to the 384-well plate containing the test sample at 12.5 μL/well. The culture medium was added additionally to the 384-well plate, and the test was started with 50 μL/well. Control wells were prepared with only virus-free culture medium. The plate was incubated in a 5% CO2 incubator at 37° C. for 4 days, and the plate was then placed at room temperature for 30 minutes. CellTiter-Glo (registered trademark) 2.0 assay (Promega) was added at 15 μL/well, mixed for 30 seconds, and the plate was placed for approximately 1 hour. The luminescent signal was then measured by EnVision (PerkinElmer). The inhibitory effect of the test agents on RSV-induced CPE was calculated as 0% and 100% inhibition rate for each sample concentration based on the level of remaining viable cells by CellTiter-Glo (registered trademark) 2.0, with the EC50 value for each compound calculated by nonlinear regression as the concentration that inhibits RSV-induced CPE by 50%. In the case of evaluation against RSV type B, RSV B (Wash/18537 strain) was infected in the same manner as the type A, cultured for 5 days, and quantitated in the same manner as for the A2 strain.
row,SMILES,EC50
1,COc1cc(COc2ccc3c(c2)CCN3c2ncc(C(=O)NC3(C(=O)O)CCCCC3)c(C(F)(F)F)n2)ccn1 [Compound I-27],10 to 100 nM

# Same assay, conditions: human respiratory syncytial virus; inhibitory effect against RSV type A (RSV A2 strain), HEp-2 cells, CPE inhibition; read-out: EC50
row,EC50,SMILES
1,< 10 nM,"CC1CN(c2ncccn2)CCC1Oc1ccc2c(-c3ncc(C(=O)NC4(C(=O)O)C5CC6CC(C5)CC4C6)c(C(F)(F)F)n3)cn(C3CCC(F)(F)CC3)c2c1 (single isomer, unassigned) [Compound I-391]"
2,< 10 nM,"O=C(NC1(C(=O)O)C2CC3CC(C2)CC1C3)c1cnc(N2c3cc(F)c(OC4CCN(c5ncccn5)CC4)cc3C3CCCCCC32)nc1C(F)(F)F (single isomer, unassigned) [Compound I-395]"
3,< 10 nM,"O=C(NC1(C(=O)O)C2CC3CC(C2)CC1C3)c1cnc(-c2cn(C3CCC(F)(F)CC3)c3cc(OC4CCC(N5CCC(F)(F)C5)CC4)ccc23)nc1C(F)(F)F (single isomer, unassigned) [Compound I-427]"
4,< 10 nM,COc1cccc(CNc2ccc3c(c2)CCN3c2ncc(C(=O)NC3(C(=O)O)CCCCC3)c(C(F)(F)F)n2)c1 [Compound I-40]
5,< 10 nM,O=C(NC1(C(=O)O)CCCCC1)c1cnc(N2CCc3cc(OC4CCN(c5ccccn5)CC4)ccc32)nc1C(F)(F)F [Compound I-41]
6,< 10 nM,O=C(NC1(C(=O)O)CCCCC1)c1cnc(N2CCc3cc(OC4CCN(c5nccs5)CC4)ccc32)nc1C(F)(F)F [Compound I-42]
7,10 to 100 nM,Cc1nsc(COc2ccc3c(c2)CCN3c2ncc(C(=O)NC3(C(=O)O)CCCCC3)c(C(F)(F)F)n2)n1 [Compound I-43]
8,10 to 100 nM,O=C(NC1(C(=O)O)CCCCC1)c1cnc(N2CC3(CC3)c3cc(OCCC4CCOCC4)ccc32)nc1C(F)(F)F [Compound I-44]
9,10 to 100 nM,O=C(NC1(C(=O)O)CCC1)c1cnc(N2CCc3cc(OC4CCN(c5ncccn5)CC4)ccc32)nc1C(F)(F)F [Compound I-46]
10,10 to 100 nM,O=C(NC1(C(=O)O)CCOCC1)c1cnc(N2CCc3cc(OC4CCN(c5ncccn5)CC4)ccc32)nc1C(F)(F)F [Compound I-47]

# The remaining lines, values behind:
row,SMILES,EC50
1,CC(=O)OCCCCOc1ccc2c(c1)CCN2c1ncc(C(=O)NC2(C(=O)O)CCCCC2)c(C(F)(F)F)n1 [Compound I-6],10 to 100 nM
2,O=C(NC1(C(=O)O)CCCCC1)c1cnc(N2CC3(CC3)c3cc(Br)ccc32)nc1C(F)(F)F [Compound I-10],100 to 5000 nM
3,COCCCCOc1ccc2c(c1)CCN2c1ncc(C(=O)NC2(C(=O)O)CC3CCC2C3)c(C(F)(F)F)n1 (stereo not shown) [Compound I-11],< 10 nM
4,O=C(NC1(C(=O)O)CC2CCC1C2)c1cnc(N2CCc3cc(OCCC4CCOCC4)ccc32)nc1C(F)(F)F (stereo not shown) [Compound I-12],< 10 nM
5,COc1cccc(COc2ccc3c(c2)CCN3c2ncc(C(=O)NC3(C(=O)O)CC4CCC3C4)c(C(F)(F)F)n2)c1 (stereo not shown) [Compound I-13],< 10 nM
6,COc1cccc(COc2ccc3c(c2)CCN3c2ncc(C(=O)NC3(C(=O)O)CCOCC3)c(C(F)(F)F)n2)c1 [Compound I-14],100 to 5000 nM
7,COc1ccc(COc2ccc3c(c2)CCN3c2ncc(C(=O)NC3(C(=O)O)CCOCC3)c(C(F)(F)F)n2)cc1 [Compound I-15],10 to 100 nM
8,O=C(NC1(C(=O)O)CCC(F)(F)CC1)c1cnc(N2CCc3cc(OCCC4CCOCC4)ccc32)nc1C(F)(F)F [Compound I-20],10 to 100 nM
9,COCCCCOc1ccc2c(c1)CCN2c1ncc(C(=O)NC2(C(=O)O)C3CC4CC(C3)CC2C4)c(C(F)(F)F)n1 (stereo not shown) [Compound I-22],< 10 nM
10,COc1cccc(/C=C/c2ccc3c(c2)CCN3c2ncc(C(=O)NC3(C(=O)O)CCCCC3)c(C(F)(F)F)n2)c1 [Compound I-24],10 to 100 nM
11,COc1ccc(CCc2ccc3c(c2)CCN3c2ncc(C(=O)NC3(C(=O)O)CCCCC3)c(C(F)(F)F)n2)cc1 [Compound I-25],10 to 100 nM
12,COc1cccc(CCc2ccc3c(c2)CCN3c2ncc(C(=O)NC3(C(=O)O)CCCCC3)c(C(F)(F)F)n2)c1 [Compound I-26],10 to 100 nM
13,Cc1nc(COc2ccc3c(c2)CCN3c2ncc(C(=O)NC3(C(=O)O)CCCCC3)c(C(F)(F)F)n2)cs1 [Compound I-28],10 to 100 nM
14,COc1cc(COc2ccc3c(c2)CCN3c2ncc(C(=O)NC3(C(=O)O)CCCCC3)c(C(F)(F)F)n2)cc(OC)c1 [Compound I-29],< 10 nM
15,COc1cncc(COc2ccc3c(c2)CCN3c2ncc(C(=O)NC3(C(=O)O)CCCCC3)c(C(F)(F)F)n2)c1 [Compound I-30],10 to 100 nM
16,CC(C)(C)OC(=O)N1CCC(Oc2ccc3c(c2)CCN3c2ncc(C(=O)NC3(C(=O)O)CCCCC3)c(C(F)(F)F)n2)CC1 [Compound I-32],10 to 100 nM
17,O=C(NC1(C(=O)O)CCCCC1)c1cnc(N2CCc3cc(OC4CCN(CC(F)(F)F)CC4)ccc32)nc1C(F)(F)F [Compound I-34],< 10 nM
18,CN(C)S(=O)(=O)NC(=O)C1(NC(=O)c2cnc(N3CCc4cc(OCCC5CCOCC5)ccc43)nc2C(F)(F)F)CCCCC1 [Compound I-35],10 to 100 nM
19,Cc1csc(COc2ccc3c(c2)CCN3c2ncc(C(=O)NC3(C(=O)O)CCCCC3)c(C(F)(F)F)n2)n1 [Compound I-37],< 10 nM
20,O=C(NC1(C(=O)NS(=O)(=O)N2CCOCC2)CCCCC1)c1cnc(N2CCc3cc(OCCC4CCOCC4)ccc32)nc1C(F)(F)F [Compound I-38],10 to 100 nM
21,COc1cccc(C(=O)Nc2ccc3c(c2)CCN3c2ncc(C(=O)NC3(C(=O)O)CCCCC3)c(C(F)(F)F)n2)c1 [Compound I-39],10 to 100 nM

# Same assay, conditions: inhibitory effect against RSV type A (RSV A2 strain), HEp-2 cells, CPE inhibition; read-out: EC50
row,SMILES,EC50
1,"CC1CN(c2ncccn2)CCC1Oc1ccc2c(-c3ncc(C(=O)NC4(C(=O)O)C5CC6CC(C5)CC4C6)c(C(F)(F)F)n3)cn(C3CCC(F)(F)CC3)c2c1 (single isomer, unassigned) [Compound I-392]",< 10 nM
2,"O=C(NC1(C(=O)O)C2CC3CC(C2)CC1C3)c1ccc(-c2cn(C3CCC(F)CC3)c3cc(OC4CCN(c5ncc(F)cn5)CC4)ccc23)nc1C(F)(F)F (single isomer, unassigned) [Compound I-398]",< 10 nM
3,"CC1CN(c2ncccn2)CCC1Oc1ccc2c(-c3ncc(C(=O)NC4(C(=O)O)C5CC6CC(C5)CC4C6)c(C(F)(F)F)n3)cn(C3CCC(F)(F)CC3)c2c1 (single isomer, unassigned) [Compound I-404]",< 10 nM
4,"CC1CN(c2ncccn2)CCC1Oc1ccc2c(-c3ncc(C(=O)NC4(C(=O)O)C5CC6CC(C5)CC4C6)c(C(F)(F)F)n3)cn(C3CCC(F)(F)CC3)c2c1 (single isomer, unassigned) [Compound I-405]",< 10 nM
5,"COC1CCC(n2cc(-c3ncc(C(=O)NC4(C(=O)O)C5CC6CC(C5)CC4C6)c(C(F)(F)F)n3)c3ccc(OC4CCN(c5ncc(F)cn5)CC4)cc32)CC1 (single isomer, unassigned) [Compound I-424]",< 10 nM
6,"O=C(NC1(C(=O)O)C2CC3CC(C2)CC1C3)c1cnc(-c2cn(C3CCC(F)CC3)c3cc(O[C@H]4CC[C@H](N5CC(F)(F)C5)CC4)ccc23)nc1C(F)(F)F (single isomer, unassigned) [Compound I-510]",< 10 nM
7,"CC(F)(F)c1nc(-c2cn(C3CCC(F)CC3)c3cc(O[C@H]4CC[C@H](N5CC(F)(F)C5)CC4)ccc23)ncc1C(=O)NC1(C(=O)O)C2CC3CC(C2)CC1C3 (single isomer, unassigned) [Compound I-571]",< 10 nM
8,"O=C(NC1(C(=O)O)C2CC3CC(C2)CC1C3)c1ccc(-c2cn(C3CCC(F)CC3)c3cc(O[C@H]4CC[C@H](N5CC(F)(F)C5)CC4)ccc23)nc1C(F)(F)F (single isomer, unassigned) [Compound I-584]",< 10 nM
